Patent publication US20240092819A1, “NOVEL LIGANDS FOR ASIALOGLYCOPROTEIN RECEPTOR” (SANOFI, priority 2020, published 2024)
Counter-ions that a name gives are not always drawn.

Target: ASGPR (Rattus norvegicus (Rat), UniProt P02706+P08290)
Experiment: Fluorescent polarization (FP) ASGPR binding assay
Conditions: competition with 1 nM Cy5-labeled trimeric GalNAc tracer, Wistar rat liver membrane
Excerpt: Fluorescent Polarization (FP) ASGPR Binding Assay to Determine the Binding Affinities of ASGPR-Targeted Small Molecules:
The technique of fluorescence polarization (FP) is based on the observation that when a fluorescently labeled molecule is excited by polarized light, it emits light with a degree of polarization that is inversely proportional to the rate of molecular rotation. This property of fluorescence can be used to measure the interaction of a small labeled ligand with a larger protein and provides a basis for direct and competition binding assays.
The assay was performed in 384-well microplates (GREINER bio-one, 781076). Membrane prepared from Wistar rat liver was used as a source of ASGPR and Cy5 fluorophore-labeled trimeric GauNAc-tool compound was used as a tracer.
In the FP binding experiments, 15 μltest sample was mixed with 15 μl of […] liver membrane. After 10 minutes incubation at room temperature, 10 μl of the Cy5-labeled trimeric GalNAc-tool compound (final concentration: 1 nM) were added. The FP signals were recorded after 30 minutes incubation at room temperature at Ex. 612 nm/Em. 670 with PheraStar FXS (BMG Biotech). The optimal FP buffer was 50 mM Tris, pH 7.4; 3 mM CaCl2; 0.04% Triton X100; 0,05% BSA.

ASGPR, sequence (P02706 whole entry): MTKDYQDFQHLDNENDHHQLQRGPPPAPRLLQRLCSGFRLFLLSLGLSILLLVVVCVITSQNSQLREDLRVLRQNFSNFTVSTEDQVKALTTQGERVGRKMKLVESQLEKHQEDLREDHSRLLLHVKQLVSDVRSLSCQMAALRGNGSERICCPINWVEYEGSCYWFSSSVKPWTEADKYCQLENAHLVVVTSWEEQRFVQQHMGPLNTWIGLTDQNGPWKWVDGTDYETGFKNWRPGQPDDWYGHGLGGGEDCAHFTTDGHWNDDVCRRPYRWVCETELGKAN
ASGPR, sequence (P08290 whole entry): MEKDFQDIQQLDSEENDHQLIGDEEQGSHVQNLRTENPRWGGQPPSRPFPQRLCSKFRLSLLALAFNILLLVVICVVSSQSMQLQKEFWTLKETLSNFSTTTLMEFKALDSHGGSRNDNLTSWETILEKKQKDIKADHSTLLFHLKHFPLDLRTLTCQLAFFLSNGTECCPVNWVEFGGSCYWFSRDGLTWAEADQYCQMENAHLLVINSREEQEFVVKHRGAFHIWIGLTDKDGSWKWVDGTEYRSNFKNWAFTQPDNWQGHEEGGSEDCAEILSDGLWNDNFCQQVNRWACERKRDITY

| Structure (SMILES) | IC50 (Table K, monomeric compounds) [µM] | other results |
| --- | --- | --- |
| Cc1cn([C@H]2CN(CCOCCOCCOC[C@H]3O[C@@H](n4cnc5c(=O)[nH]c(N)nc54)[C@H](O)[C@@H]3O)CC(CO)(CO)O2)c(=O)[nH]c1=O [Compound 254, 1-[(2R)-4-[2-[2-[2-[[(2R,3S,4R,5R)-5-(2-Amino-6-oxo-1H-purin-9-yl)-3,4-dihydroxy-tetrahydrofuran-2-yl]methoxy]ethoxy]ethoxy]ethyl]-6,6-bis-(hydroxymethyl)-morpholin-2-yl]-5-methyl-pyrimidine-2,4-dione] |  | IC50 (Table L, targeted nucleosides): 1240 µM |
| CC(=O)N[C@H]1CN(C(=O)CCC(=O)NCCCNC(=O)CCOCC(COCCC(=O)NCCCNC(=O)CCC(=O)N2C[C@H](NC(C)=O)[C@@H](O)[C@@H](O)C2)(COCCC(=O)NCCCNC(=O)CCC(=O)N2C[C@H](NC(C)=O)[C@@H](O)[C@@H](O)C2)NC(=O)CCCCCCCCCCCOCc2ccccc2)C[C@H](O)[C@@H]1O [Compound 269, N,N′,N′-((3S,3′S,3″S,4R,4′R,4″R,5S,5′S,5″S)-(15-(12-(benzyloxy)dodecanamido)-4,10,20,26-tetraoxo-15-((3-oxo-3-((3-(4-oxobutanamido)propyl)amino)pro-poxy)methyl)-13,17-dioxa-5,9,21,25-tetraazanonacosanedioyl)tris(4,5-dihydroxypiperidine-1,3-diyl))triacetamide] |  | IC50 (Table M, trimeric compounds): 0.598 µM |
| CC(=O)NC1CN(C(=O)CCCC(=O)NCCCNC(=O)CCOCC(COCCC(=O)NCCCNC(=O)CCCC(=O)N2C[C@H](NC(C)=O)[C@@H](O)[C@@H](O)C2)(COCCC(=O)NCCCNC(=O)CCCC(=O)N2C[C@H](NC(C)=O)[C@@H](O)[C@@H](O)C2)NC(=O)CCCCCCCCCCCOCc2ccccc2)C[C@H](O)[C@@H]1O (stereo partly drawn) [Compound 268, N,N′,N′-((3S,3′S,3″S,4R,4′R,4″R,5S,5′S,5″S)-(16-(12-(benzyloxy)dodecanamido)-5,11,21,27-tetraoxo-16-((3-oxo-3-((3-(5-oxopentanamido)propyl)amino)propoxy)methyl)-14,18-dioxa-6,10,22,26-tetraazahentriacontanedioyl)tris(4,5-dihydroxy-piperidine-1,3-diyl))triacetamide] |  | IC50 (Table M, trimeric compounds): 0.335 µM |
| O=C1[C@H](O)[C@H](O)[C@@H](n2cc(COc3ccccc3)nn2)CN1CCCCCCOCc1ccccc1 [Compound 140, (3R,4R,5S)-1-(6-benzyloxyhexyl)-3,4-dihydroxy-5-[4-(phenoxymethyl)triazol-1-yl]piperidin-2-one] | 658 |  |
| CC(=O)N[C@H]1CN(C(=O)CCCCC(=O)NCCCNC(=O)CCOCC(COCCC(=O)NCCCNC(=O)CCCCC(=O)N2C[C@H](NC(C)=O)[C@@H](O)[C@@H](O)C2)(COCCC(=O)NCCCNC(=O)CCCCC(=O)N2C[C@H](NC(C)=O)[C@@H](O)[C@@H](O)C2)NC(=O)CCCCCCCCCCCOCc2ccccc2)C[C@H](O)[C@@H]1O [Compound 267, N,N′,N′-((3S,3′S,3″S,4R,4′R,4″R,5S,5′S,5″S)-(17-(12-(benzyloxy)dodecanamido)-6,12,22,28-tetraoxo-17-((3-oxo-3-((3-(6-oxopentanamido)propyl)amino)propoxy)methyl)-15,19-dioxa-7,11,23,27-tetraazatritriacontanedioyl)tris(4,5-dihydroxypiperidine-1,3-diyl))triacetamide] |  | IC50 (Table M, trimeric compounds): 0.563 µM |
| CN(C)c1nc2c(ncn2[C@@H]2O[C@H](CO)[C@@H](O)[C@H]2O)c(=O)[nH]1 [Compound 198, 9-[(2R,3R,4S,5R)-3,4-dihydroxy-5-(hydroxymethyl)-tetrahydro-furan-2-yl]-2-(dimethylamino)-1H-purin-6-one] | 1940 |  |
| CC(=O)N[C@H]1CN(C(=O)CCCCCO)C[C@H](O)[C@@H]1O [Compound 129, N-[(3S,4R,5S)-4,5-dihydroxy-1-(6-hydroxyhexanoyl)-3-piperidyl]acetamide] | 585 |  |
| CC(=O)N[C@H]1CN(CCCCCCOCc2ccccc2)[C@H](CO)[C@H](O)[C@@H]1O [Compound 180, N-[(3S,4R,5S,6R)-1-(6-benzyloxyhexyl)-4,5-dihydroxy-6-(hydroxymethyl)-3-piperidyl]acetamide] | 628 |  |
| Cc1cn([C@H]2CN(CCOCCOCCOP(=O)(O)OC[C@H]3O[C@@H](n4cnc5c(=O)[nH]c(N)nc54)[C@H](O)[C@@H]3O)CC(CO)(CO)O2)c(=O)[nH]c1=O [Compound 258, [(2R,3S,4R,5R)-5-(2-Amino-6-oxo-1H-purin-9-yl)-3,4-di-hydroxy-tetrahydrofuran-2-yl]methyl 2-[2-[2-[(6R)-2,2-bis(hydroxymethyl)-6-(5-methyl-2,4-dioxo-pyrimidin-1-yl)morpholin-4-yl]ethoxy]ethoxy]ethyl hydrogen phosphate-sodium salt] |  | IC50 (Table L, targeted nucleosides): 1850 µM |
| O=C(CCCCCOCc1ccccc1)N1C[C@H](O)[C@H](O)[C@@H](n2cc(COc3ccccc3)nn2)C1 [Compound 131, 6-benzyloxy-1-[(3S,4R,5S)-3,4-dihydroxy-5-[4-(phenoxy-methyl)triazol-1-yl]-1-piperidyl]hexan-1-one] | 1770 |  |
| CNC(=O)C[C@H]1O[C@@H](n2cnc3c(=O)[nH]c(N)nc32)[C@H](O)[C@@H]1O [Compound 71, 2-[(2R,3S,4R,5R)-5-(2-Amino-6-oxo-1H-purin-9-yl)-3,4-dihydroxy-tetrahydrofuran-2-yl]-N-methyl-acetamide] | 605 |  |
| CC(=O)N[C@H]1CN(C(=O)CCCCC(=O)OCc2ccccc2)[C@H](COC(C)(C)C)[C@H](O)[C@@H]1O [Compound 160, benzyl 6-[(2R,3S,4R,5S)-5-acetamido-2-(tert-butoxymethyl)-3,4-dihydroxy-1-piperidyl]-6-oxo-hexanoate] | 1050 |  |
| CCCCNC(=O)C[C@H]1O[C@@H](n2cnc3c(=O)[nH]c(N)nc32)[C@H](O)[C@@H]1O [Compound 73, 2-[(2R,3S,4R,5R)-5-(2-Amino-6-oxo-1H-purin-9-yl)-3,4-dihydroxy-tetrahydrofuran-2-yl]-N-butyl-acetamide] | 1920 |  |

The next lines start with results.

| IC50 (Table K, monomeric compounds) [µM] | Structure (SMILES) | other results |
| --- | --- | --- |
| 513 | Nc1nc2c(ncn2[C@@H]2O[C@H](CO)[C@@H](O)[C@H]2O)c(=O)[nH]1 [Compound 194, 2-amino-9-[(2R,3R,4S,5R)-3,4-dihydroxy-5-(hydroxymethyl)-tetrahydrofuran-2-yl]-1H-purin-6-one] |  |
| 370 | CCC[C@@H]1[C@H](O)[C@H](O)[C@@H](NC(C)=O)CN1C(=O)CCCCC(=O)O [Compound 148, 6-[(2R,3S,4R,5S)-5-acetamido-3,4-dihydroxy-2-propyl-1-piperidyl]-6-oxo-hexanoic acid] |  |
| 344 | CC(=O)N[C@H]1CN(C(=O)CCCCC(=O)OCc2ccccc2)C[C@H](O)[C@@H]1O [Compound 112, benzyl 6-[(3S,4R,5S)-3-acetamido-4,5-dihydroxy-1-piperidyl]-6-oxo-hexanoate] |  |
| 488 | CCC[C@@H]1[C@H](O)[C@H](O)[C@@H](NC(C)=O)CN1C(=O)CCCCC(=O)OCc1ccccc1 [Compound 146, benzyl 6-[(2R,3S,4R,5S)-5-acetamido-3,4-dihydroxy-2-propyl-1-piperidyl]-6-oxo-hexanoate] |  |
| 563 | CC(=O)N[C@H]1CN(C(=O)OCc2ccccc2)C[C@H](O)[C@@H]1O [Compound 121, benzyl (3S,4R,5S)-3-acetamido-4,5-dihydroxy-piperidine-1-carboxylate] |  |
| 89 | CN(C)C(=O)C[C@H]1O[C@@H](n2cnc3c(=O)[nH]c(N)nc32)[C@H](O)[C@@H]1O [Compound 72, 2-[(2R,3S,4R,5R)-5-(2-Amino-6-oxo-1H-purin-9-yl)-3,4-dihydroxytetrahydrofuran-2-yl]-N,N-dimethyl-acetamide] |  |
| 129 | CC(C)C(=O)Nc1nc2c(ncn2[C@@H]2O[C@H](CO)[C@@H](O)[C@H]2O)c(=O)[nH]1 [Compound 219, N-Isobuturylguanosine] |  |
| 545 | CC(=O)N[C@H]1C(O)O[C@H](CO)[C@H](O)[C@@H]1O (stereo partly drawn) [Compound 193, N-[(3R,4R,5R,6R)-2,4,5-trihydroxy-6-(hydroxymethyl)-tetrahydropyran-3-yl]acetamide, reference compound] |  |
| 451 | CC(=O)N[C@H]1CN(C(=O)CCCCCOCc2ccccc2)C[C@H](O)[C@@H]1O [Compound 128, N-[(3S,4R,5S)-1-(6-benzyloxyhexanoyl)-4,5-dihydroxy-3-piperidyl]acetamide] |  |
| 161 | CC(=O)N[C@H]1CN[C@H](COC(=O)CCCCC(=O)OCc2ccccc2)[C@H](O)[C@@H]1O [Compound 161, 06-[[(2R,3S,4R,5S)-5-acetamido-3,4-dihydroxy-2-piperidyl]methyl] 01-benzyl hexanedioate] |  |
| 576 | CC(=O)N[C@H]1CN(C(=O)CCCCC(=O)OCc2ccccc2)[C@@H](CO)[C@H](O)[C@@H]1O [Compound 162, benzyl 6-[(2S,3S,4R,5S)-5-acetamido-3,4-dihydroxy-2-(hydroxymethyl)-1-piperidyl]-6-oxo-hexanoate] |  |
